Patent publication US8507219B2, “Method of treating inflammation with statins” (MUSC Foundation for Research Development, priority 1997, dated 2013)
Like-named read-outs stand apart in the source and are kept apart here.

What was measured:
iNOS gene = iNOS gene transcription (nuclear run-on assay) in rat primary astrocytes; format: cell-based
Method: […]. In brief, the filters were prehybridized in 1 ml of hybridization buffer (50% formamide, 5×SSC, 1% SDS, 15% dextran sulfate, 1×Denhardt's solution, and 50 μg/ml heparin). After 24 h of prehybridization in the above buffer, hybridization was carried out with the labeled RNAs (1.3×10^5 cpm) at 42° C. for 60 h to 3 μg of the immobilized plasmid pGEM-T as a control, or to plasmids containing inserts of rat glyceraldehyde-3-phosphate dehydrogenase, rat actin, and human iNOS cDNAs. The filters were washed twice in 2×SSC, 0.1% SDS for 15 min at […], and twice in 0.5×SSC, 0.1% SDS for 15 min. Then the filters were treated with RNase buffer (300 mM NaCl, 10 mM TrisHCI, pH 7.4, 40 mM EDTA, 10 μg/ml RNase A, and 350 U/ml RNase T1) at 37° C. for 30 min, in the same buffer without RNases for another 30 min, and were then autoradiographed.

[1] = system: NO production in rat resident macrophages; assay: LPS-/cytokine-induced NO production (nitrite) in rat resident peritoneal macrophages; format: cell-based; details: for inhibition at 20000 µM: Rattus norvegicus, Macrophage
Method: Isolation of Rat Macrophages and Induction of NO Production Resident macrophages were obtained from rats by peritoneal lavage with sterile RPMI 1640 medium containing 1% fetal bovine serum and 100 μg/ml gentamicin (Wang et al., 1995). Cells were washed three times with RPMI 1640 at 4° C. All cell cultures were maintained at 37° C. in a humidified incubator containing 5% CO2 in air. Macrophages, at a concentration of 2×10^6/ml in RPMI 1640 medium containing L-glutamine and gentamicin, were added in volumes of 800 μl to a 35 mm plate. After 1 h, nonadherent cells were removed by washing and 800 μl of serum-free RPMI 1640 medium with various stimuli were added to the adherent cells. After 24 h incubation in 5% CO2 in air at 37° C., the culture supernatants were transferred to measure NO production (Geng et al., 1995; Wang et al., 1995).
Isolation of rat macrophages and induction of NO production Resident macrophages were obtained from rat by peritoneal lavage with sterile RPMI 1640 medium containing 1% fetal bovine serum and 100 μg/ml gentamicin as described herein. Cells were washed three times with RPMI 1640 at 4° C. All cell cultures were maintained at 37° C. in a humidified incubator containing 5% CO2 in air. Macrophages at a concentration of 2×10^6/ml in RPMI 1640 medium containing L-glutamine and gentamicin were added in volumes of 800 μl to a 35 mm plate. After 1 h, nonadherent cells were removed by washing and 800 μl of serum-free RPMI 1640 medium with various stimuli were added to the adherent cells. After incubation in 5% CO2 in air at 37° C., culture supernatants were transferred to measure NO production.
Isolation of rat macrophages and induction of NO production Resident macrophages were obtained from rat by peritoneal lavage with sterile RPMI 1640 medium containing 1% FBS and 100 μg/ml gentamicin. Cells were washed three times with RPMI 1640 at 4° C., and were maintained at 37° C. in a humidified incubator containing 5% CO2 in air. Macrophages at a concentration of […] in RPMI 1640 medium containing L-glutamine and gentamicin were added in volumes of 800 μl to a 35-mm plate. After 1 h, nonadherent cells were removed by washing, and 800 μl of serum-free RPMI 1640 medium with various stimuli was added to the adherent cells. After 24 h the culture supernatants were transferred to measure NO production.
Protein was measured (Bradford, 1976).

EAE in female Lewis rats = assay: Experimental allergic encephalomyelitis (EAE), clinical score; format: in vivo
Method: Rats were induced with EAE by injecting intradermally 50 μg of myelin basic protein (MBP) per animal emulsified in complete Freund's adjuvant (CFA) into the medial footpad of each hind leg on day 1 followed by a booster injection on the 7th day under ether anesthesia. Clinical symptoms in these rats manifest as an ascending paralysis resulting in death in most animals. The signs of EAE were scored as: (0) normal; (1) piloerection; […] (4) paraplegia; and (5) moribund. […] One group of animals induced for EAE was left untreated while another group of animals was not induced for EAE and used as the control group.

[2] = treatment from first day of immunization

Structure (SMILES): CC[C@H](C)C(=O)O[C@H]1C[C@@H](C)C=C2C=C[C@H](C)[C@H](CC[C@@H]3C[C@@H](O)CC(=O)O3)[C@H]21 [Lovastatin]
- LPS-induced nuclear transcription of the iNOS gene (iNOS gene; 10 μM lovastatin, 5 mM NaPA or 2 μM lovastatin and 2 mM NaPA 8 h, LPS 1.0 μg/ml 4 h): inhibited the relative rate of LPS-induced nuclear transcription of the iNOS gene
- Production of NO ([1]; Macrophages, 10 μM lovastatin or 5 mM NaPA 8 h, then LPS 1.0 μg/ml, 24 h): 7.2 ± 0.9 nmol/24 h/mg protein
- protection against EAE disease (EAE in female Lewis rats; [2]): significantly delayed the onset of first of clinical symptom

Structure (SMILES): CC(=O)N[C@@H](CS)C(=O)O [NAC, N-acetyl cysteine]
- Nitrite ([1]; IFN-γ 200 U/ml, NAC 20 mM 2 h before): 9.9 ± 1.8 nmol/mg/24 h
- Nitrite ([1]; IL-1β 200 ng/ml, NAC 20 mM 2 h before): 9.2 ± 0.7 nmol/mg/24 h
- Nitrite ([1]; LPS 0.2 μg/ml + IFN-γ 50 U/ml, NAC 20 mM 2 h before): 25.2 ± 3.9 nmol/mg/24 h
- Nitrite ([1]; LPS 0.2 μg/ml + IL-1β 25 ng/ml, NAC 20 mM 2 h before): 28.4 ± 3.7 nmol/mg/24 h
- Nitrite ([1]; LPS 0.2 μg/ml + TNF-α 20 ng/ml, NAC 20 mM 2 h before): 13.6 ± 2.6 nmol/mg/24 h
- Nitrite ([1]; LPS 1.0 μg/ml, 24 h, NAC 20 mM 2 h before LPS, NMA 0.1 mM, arginase 100 units/ml with LPS): 11.6 ± 1.5 nmol/mg Protein^24h
- rate of nitrite accumulation ([1]; LPS 1.0 μg/ml, NAC 20 mM, onset of NO release until 24 h, 5.2 in the absence of NAC): 0.5 nmol/mg/h
- Nitrite ([1]; LPS 1.0 μg/ml, NAC 20 mM 2 h before): 11.6 ± 1.5 nmol/mg/24 h
- Nitrite ([1]; NAC 20 mM alone, no LPS, 24 h): 6.2 ± 0.8 nmol/mg Protein^24h
- inhibition at 20000 µM ([1]; 7 h, NAC 20 mM added 7 h after the addition of LPS, read-out: inhibition of nitrite production): 20%
- inhibition at 20000 µM ([1]; IFN-γ 200 U/ml, NAC 20 mM 2 h before, read-out: Inhibition (%) of nitrite): 89%
- inhibition at 20000 µM ([1]; IL-1β 200 ng/ml, NAC 20 mM 2 h before, read-out: Inhibition (%) of nitrite): 57%
- inhibition at 20000 µM ([1]; LPS 0.2 μg/ml + IFN-γ 50 U/ml, NAC 20 mM 2 h before, read-out: Inhibition (%) of nitrite): 84%
- inhibition at 20000 µM ([1]; LPS 0.2 μg/ml + IL-1β 25 ng/ml, NAC 20 mM 2 h before, read-out: Inhibition (%) of nitrite): 81%
- inhibition at 20000 µM ([1]; LPS 0.2 μg/ml + TNF-α 20 ng/ml, NAC 20 mM 2 h before, read-out: Inhibition (%) of nitrite): 92%
- inhibition at 20000 µM ([1]; LPS 1.0 μg/ml, NAC 20 mM 2 h before, read-out: Inhibition (%) of nitrite): 91%
- inhibition at 20000 µM ([1]; NAC 20 mM, 2 h before LPS, read-out: inhibition of LPS-mediated nitrite production): > 90%
- inhibition at 20000 µM ([1]; TNF-α 20 ng/ml + IFN-γ 50 U/ml, NAC 20 mM 2 h before, read-out: Inhibition (%) of nitrite): 79%
- inhibition at 20000 µM ([1]; TNF-α 20 ng/ml + IL-1β 25 ng/ml, NAC 20 mM 2 h before, read-out: Inhibition (%) of nitrite): 83%
- inhibition at 20000 µM ([1]; TNF-α 100 ng/ml, NAC 20 mM 2 h before, read-out: Inhibition (%) of nitrite): 64%
- inhibition at 20000 µM ([1]; no stimulus (Control), NAC 20 mM, read-out: Inhibition (%) of nitrite): 37%
- inhibition at 20000 µM ([1]; of LPS (1.0 μg/ml)-induced nitrite, NAC 20 mM 2 h before, NMA 0.1 mM, arginase 100 units/ml with LPS, read-out: Inhibition (%)): 91%
- Nitrite ([1]; TNF-α 20 ng/ml + IFN-γ 50 U/ml, NAC 20 mM 2 h before): 29.6 ± 4.2 nmol/mg/24 h
- Nitrite ([1]; TNF-α 20 ng/ml + IL-1β 25 ng/ml, NAC 20 mM 2 h before): 22.8 ± 2.7 nmol/mg/24 h
- Nitrite ([1]; TNF-α 100 ng/ml, NAC 20 mM 2 h before): 10.1 ± 1.6 nmol/mg/24 h
- Nitrite ([1]; no stimulus (Control), NAC 20 mM): 6.2 ± 0.8 nmol/mg/24 h
- protection against EAE disease (EAE in female Lewis rats; [2]): protected the rats from the severity of the disease

Structure (SMILES): O=C([O-])Cc1ccccc1.[Na+] [NaPA, sodium salt of phenylacetic acid]
- LPS-induced nuclear transcription of the iNOS gene (iNOS gene): inhibited the relative rate of LPS-induced nuclear transcription of the iNOS gene
- Production of NO [1]: 9.5 ± 0.7 nmol/24 h/mg protein
- protection against EAE disease (EAE in female Lewis rats; rat, in vivo): protected the rats from the severity of the disease
